Results taken from a melting point compilation (Tetko et al.; mined from patent text by program, amines drawn as free bases though some values may be those of a salt).

| Compound | melting point |
| --- | --- |
| O=c1n(CCCN2CCC(c3c[nH]c4ccccc34)CC2)nc2ccccn12 | 112 °C |
| N=C(N)NCCSCc1nccs1 | 120 to 122 °C |
| Cc1c(C(=O)O)ccc(Cl)c1O | 191 °C |
| CN1CCN(c2cccc3c2CC[C@@H](NC(=O)c2ccc(N4CCOCC4)cc2)C3)CC1 | 127 to 128 °C |
| CC(=O)Nc1cccc(C#CC=Cc2cccc(NC(C)=O)c2)c1 | 276 to 278 °C |
| CNc1nc(Nc2ccc(Cl)c(Cl)c2)ncc1NC(=O)C(C)C | 284 to 286 °C |
| O=C1Nc2ccccc2C(=O)N2CCCC12 (stereo not given) | 174 °C |
| O=c1[nH]ncc2[nH]c(-c3ccc(OC(F)F)c(OC4CC4)c3)c(Cc3ccc(F)cc3)c12 | 193 to 195 °C |
| O=C(Nc1cccnc1)N1CCc2c1ccc(Cl)c2Cl | > 240 °C |
| CN(C)C=CC(=O)c1cccc(Cl)c1 | 68 to 70 °C |
| CSc1[nH]c2cccc3c2c1CC1C3C=C(C)CN1C (stereo not given) | 148 to 150 °C |
| CC1CN(c2c(F)c(N)c3c(=O)c(C(=O)O)cn(C4CC4)c3c2OC(F)F)CCN1 (stereo not given) | 283 to 286 °C |
| COc1ccc(NS(C)(=O)=O)cc1CN1CCC(=O)C(C(c2ccccc2)c2ccccc2)C1 (stereo not given) | 132 to 135 °C |
| CCCCc1nc2cccc(C(=O)O)c2n1Cc1ccn2c(C(=O)O)c(-c3ccccc3)nc2c1 | 202 to 204 °C |
| Cc1ccc2c(c1)c1cc(-c3ccc(Cl)cc3Cl)c(=O)n(C)c1n2CCCN1C(=O)c2ccccc2C1=O | 249 °C |
| CCOCOC1(C(=O)CO)C(C)CC2C3CC(C)C4=CC(=O)C=CC4(C)C3C(O)CC21C (stereo not given) | 100 to 102 °C |
| OCCc1cc(C(O)CNCCCCCOCCCCc2ccccc2)ccc1O (stereo not given) | 65 to 67 °C |
| CCCc1nc(SC)c(C(O)(C(=O)O)C(C)C)n1Cc1ccc(-c2ccccc2S(=O)(=O)NC(=O)NCc2ccccc2)cc1 (stereo not given) | 180 °C |
| O=C(O)Cn1nc(Br)nc1Br | 147 to 152 °C |
| CCN1c2ncccc2C(=O)Nc2c(C)cc(NCCO)nc21 | 241 to 244 °C |
| C=CC(CC(O)C(CC1CCCCC1)NC(=O)C(Cc1ncc[nH]1)NC(=O)C(Cc1ccccc1)NC(=O)C(N)COC(C)(C)C)C(C)C (stereo not given) | 103 °C |
| CCOC(=O)c1c(CN2CCNCC2)nc2cc(OC)c(OC)cc2c1-c1ccc(OC)c(OC)c1 | 192 to 193 °C |
| CCOP(=O)(OCC)C1=C(C(=O)OC(c2ccccc2)c2ccccc2)N2C(=O)C(NC(=O)COc3ccccc3)C2CC1 (stereo not given) | 70 to 74 °C |
| COc1ccc(C(=O)Nc2ccc3ccc(OC)nc3n2)cc1 | 115 °C |
| CCCOC(C)c1ccc(-c2ccc(O)cc2)cc1 (single isomer, unassigned; (+)) | 123 to 125 °C |

| Compound | melting point |
| --- | --- |
| Oc1ccc(-c2nnc(-c3ccc(Oc4ccccc4)cc3)o2)cc1 | 204 to 206 °C |
| O=C(C=Cc1ccc(Cl)cc1)C(CC=Cc1ccc(Cl)cc1)c1ccccc1 (stereo not given) | 115 to 118 °C |
| COc1ccc(CNc2nc(-c3ccc(C(=O)O)cc3)nc3c2c2c(n3C(C)c3ccccc3)CCCC2)cc1Cl (stereo not given) | 179 °C |
| O=C(O)CC(Cc1ccccc1[N+](=O)[O-])C(=O)O (stereo not given) | 135 to 138 °C |
| CCCSC(=S)N1C(CO)Cc2c([nH]c3ccccc23)C1C (stereo not given) | 115 to 118 °C |
| CCc1noc(-c2ncc3[nH]c4ccc(C5CC=CCC5)cc4c3c2C)n1 (stereo not given) | 247 to 248 °C |
| CS(=O)(=O)Nc1ccc(C(=O)Cc2ccccc2)cc1Sc1ccc(F)cc1F | 120 to 122 °C |
| COC(=O)Nc1cc(Oc2ccc3c(C(=O)Nc4cccc(C(F)(F)F)c4)cccc3c2)ccn1 | 230 to 232 °C |
| CC(=O)NC1Cc2ccc(C(=O)CCl)cc2C1 (stereo not given) | 173 to 174 °C |
| CC(C)=Nc1c2c(nc3ccccc13)CCCC2 | 127 to 130 °C |
| Cn1c(=O)cc(-c2cccc(Cl)c2)c2cc(C(C)(c3ccc(Cl)cc3)n3ccnc3)ccc21 (stereo not given) | 120 °C |
| Cc1cc(C)c(CSc2ccccc2)c(-c2ccc(F)c(C)c2)c1 | 72 to 74 °C |
| O=C(NCC1CCN(CC2(C(=O)O)CCOCC2)CC1)N1C(=O)C2(CCCC2)c2ccccc21 | 146 °C |
| N[C@@H](Cc1ccccc1)C(c1ccccc1)c1ccccc1 | 71 to 72 °C |
| Cc1cc(C(C)(C)C)cc(C=NO)c1O | 107 to 108 °C |
| COc1ccc(-c2nccn2N=Cc2ccccc2)cc1 | 155 °C |
| CCc1nc2nccc(-c3cccc(C(F)(F)F)c3)n2n1 | 132 to 134 °C |
| COc1ccc(-c2nc(N)ncc2-c2ccc(=O)[nH]n2)cc1OC | 225 °C |
| CN1CC(C)(CCCl)Oc2ncccc2C1=S (stereo not given) | 119 to 121 °C |
| N#Cc1cc([N+](=O)[O-])ccc1Oc1cc(Cl)c(Cl)c(Cl)c1 | 162 to 164 °C |
| OC(c1ccccc1)(c1ccccc1)C1CCN(Cc2ccccc2)CC1 | 89.5 to 90.5 °C |
| CCCCCc1c(C(C)C)nc(C(C)C)c(CCO)c1-c1ccc(F)cc1 | 81 to 83 °C |
| CC1(C)CCn2c(nc(-c3ccccn3)cc2=O)N1 | 345 to 347 °C |
| COc1cc(C=O)ccc1OCc1nc(N2CCOCC2)sc1C | 127 to 128 °C |
| CC(C)(C)c1cc(CC#Cc2ccc(C(=O)O)c(O)c2)cc(C(C)(C)C)c1O | 205 to 206 °C |

| Compound | melting point |
| --- | --- |
| CNC(=O)N1CC(Oc2cccc(C(N)=O)c2)C1 | 238 to 240 °C |
| C/C(=C\c1ccc(C(=O)O)cc1)c1cc2c(s1)C(C)(C)CCC2(C)C | 236 to 238 °C |
| CC(C)(O)c1ccc(CNC(=O)c2cccnc2Oc2ccc3nonc3c2)cc1 | 149 to 151 °C |
| NS(=O)(=O)c1cccc(-c2noc(-c3cnn4c(C(F)F)cc(-c5ccc(Cl)cc5)nc34)n2)c1 | 231 °C |
| CNC(=O)c1ccc(-c2ccc3nnn(Cc4ccc5ncccc5c4)c3n2)cc1Cl | 227 to 230 °C |
| Nc1nc(NCc2ccccc2)c2ncn(C3CC(F)C(CO)O3)c2n1 (stereo not given) | 90 to 94 °C |
| CCOC(=O)c1c(C(C)C)nn(-c2ccccc2)c1-c1ccc(F)cc1 | 92 to 93 °C |
| O=C(O)CNC(=O)c1sc(Nc2ccccc2)c2c1CCc1cnoc1-2 | 193 to 194 °C |
| NCCOc1cc(-c2ccccn2)nc(-c2ccccn2)c1 | 134 to 137 °C |
| CS(=O)(=O)c1ccc(-c2cnn(-c3ccc(F)c(F)c3)c(=O)c2-c2ccc(F)cc2)cc1 | 109 to 110 °C |
| COC(=O)/C(=C/C=C/c1cc2cc(OC)ccc2[nH]1)OC | 150 to 151 °C |
| OC(CCl)COc1ccc2c(c1)OCC(c1ccccc1)C2 (stereo not given) | 74 to 76 °C |
| Nc1cccc(-c2ccc(CCN3C4CCC3CC(N)C4)cc2)n1 (stereo not given) | > 300 °C |
| CCOC(=O)c1cc([N+](=O)[O-])cn1Cc1ccccc1 | 73 °C |
| COc1c(I)cc(-c2c3ccccc3cc3sc4ccccc4c23)cc1I | 228 to 230 °C |
| CC1C(=O)Nc2cc(N)c(N)cc21 (stereo not given) | > 300 °C |
| CS(=O)(=O)N1C[C@H](S)C[C@H]1COc1ccccc1 | 78 to 79 °C |
| CON(C)C(=O)NN(C(=O)Cl)c1cccc2c1OC(C)C2 (stereo not given) | 91 to 93 °C |
| COc1ccc(C(=O)Nc2ccc(C3(CNC(=O)C(C)(C)C)CCCC3)cc2)cc1OC | 165 to 167 °C |
| COc1ccc(C(=O)c2[nH]c(=S)[nH]c2C)cc1 | 200 °C |
| CCNCCn1c(-c2ccc(Br)cc2)cc2c1CCSC2 | 84 to 85 °C |
| CC(C)(CC(N)=O)c1ccc2c(c1)OCO2 | 70 to 71.5 °C |
| COc1ccc2c(Cl)nncc2c1 | 181 to 183 °C |
| CC(CC(C)(C)O)=NO | 159 to 161 °C |
| COc1cc2[nH]nc(S(C)=O)c(=O)c2cc1OC (stereo not given) | 303 °C |

| Compound | melting point |
| --- | --- |
| CC(C)(Oc1ccc(CCC(=O)c2ccc(-c3ccc(OC(F)(F)F)cc3)s2)c(Cl)c1Cl)C(=O)O | 135 to 136 °C |
| N#Cc1ccc(-c2csc(N3C(=O)OC[C@H]3CF)n2)cc1 | 195 to 196 °C |
| CNc1cc(Oc2ccc3c(C(=O)O)cccc3c2)ncn1 | 267 to 268 °C |
| O=C(O)C1=C(S(=O)(=O)c2ccccc2)CC2CC(=O)C12 (stereo not given) | 205 to 207 °C |
| COc1ccc(C(=O)C2=C(c3ccccc3)CCc3ccccc32)cc1 | 106 to 107 °C |
| CCC(NS(=O)(=O)c1ccc(Cl)c(Cl)c1)c1cnc(Oc2ccc(F)cc2)n1CC (stereo not given) | 138 °C |
| NC(=O)c1cc(Cl)c(Cl)cc1C(=O)NCCN1CCC(c2noc3cc(F)ccc23)CC1 | 132 to 134 °C |
| c1ccc2c(c1)Nc1cc(-c3csc(CN4CCCCC4)n3)ccc1S2 | 186 to 188 °C |
| CC1CC(N)=NN1c1nc2ccccc2s1 (stereo not given) | 212 to 215 °C |
| COCCCNC(=O)c1[nH]c(C)c(-c2nc3ccc(C(=O)c4ccccc4)cc3[nH]2)c1C | 256 to 258 °C |
| Cc1cc(C)cc(Oc2c(C(C)C)c(=O)[nH]c(=O)n2CC2CCCC2)c1 | 157 to 158 °C |
| CCOC(=O)C1=C(C)Nc2ccnc(OC(C)C)c2C1c1ccccc1 (stereo not given) | 136 to 137 °C |
| COc1cc2c(C3=CCNCC3)c[nH]c2cc1Cl | 222 to 224 °C |
| Cc1cc(C)c2nc(C(=O)O)cc(-c3ccccc3Cl)c2c1 | 234 to 235 °C |
| CCCCCCCCN1C(=O)C2C3CCC(O3)C2C1=O (stereo not given) | 36 to 37 °C |
| Cc1cccc(-c2nc(NC(=O)c3ccc(C(=O)O)cc3)sc2-c2ccncn2)c1 | 380 to 381 °C |
| COc1ccc(-n2c(=O)c(-c3ccccc3)nc3ccccc32)cc1 | 199 to 202 °C |
| O=C(NC(Cc1ccc(OCc2cccc(F)c2)cc1)C(=O)O)c1cn2ccc(-c3ccc(Cl)cc3)cc2n1 (stereo not given) | 248 to 250 °C |
| OC[C@@H]1O[C@H](n2c(NC3CC3)nc3c(Br)c(Cl)c(Cl)cc32)[C@@H](O)[C@H]1O | 205 to 208 °C |
| CC#CC(C)(C)NC(=O)C(COC)Oc1ccc2ccncc2c1 (stereo not given) | 155 to 156 °C |
| Cc1ccc(C)n1Nc1ccc(Cl)nn1 | 173 to 175 °C |
| CCOC(=O)c1c(N2CCN(C(=O)c3cccs3)CC2)c2cc(Cl)cnc2n(CC(=O)c2ccccc2)c1=O | 227 °C |
| Cc1[nH]c(-c2ccccc2)c(N)c1C(=O)c1ccccc1Cl | 214 to 216 °C |
| Cc1nc2sc3ccccc3n2c1C(C)O (stereo not given) | 173 to 174 °C |
| CCOC(=O)c1c(CC(=O)O)n(-c2ccc(OC(C)C)cc2)c2ccc(Oc3ccc(C(F)(F)F)cc3)cc12 | 158 °C |
